The text below walks through data of patent publication US20250084078A1, “FUSED RING-SUBSTITUTED SIX-MEMBERED HETEROCYCLIC COMPOUND, AND PREPARATION METHOD THEREFOR AND USE THEREOF” (GENFLEFT THERAPEUTICS (SHANGHAI) INC., priority 2022, published 2025).

Each structure is given as a SMILES string. Where a name gives a salt, the structure may show the parent alone.

Test [1] concerns the target T1, HPK1 (Homo sapiens, UniProt Q92918).
T1 sequence (Q92918 1-346): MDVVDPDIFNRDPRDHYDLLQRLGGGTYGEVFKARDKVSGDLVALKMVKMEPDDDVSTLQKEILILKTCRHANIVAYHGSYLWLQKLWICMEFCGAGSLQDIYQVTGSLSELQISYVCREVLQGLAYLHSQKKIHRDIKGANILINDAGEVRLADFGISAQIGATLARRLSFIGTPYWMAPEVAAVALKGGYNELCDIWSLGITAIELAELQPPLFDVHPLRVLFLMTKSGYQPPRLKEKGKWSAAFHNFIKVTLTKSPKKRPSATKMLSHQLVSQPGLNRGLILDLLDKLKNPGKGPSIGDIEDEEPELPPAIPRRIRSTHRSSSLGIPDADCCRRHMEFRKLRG
Briefly: HPK1 kinase activity assay (ADP-Glo). The note with it: HPK1 Kinase activity IC50, ADP-Glo; 1 nM HPK1, 10 μM ATP, 0.1 μg/μL MBP. Background: ADP-Glo first removes unused ATP, then detects ADP through luciferase.
Method: Preparation of buffer: Ix reaction buffer (40 mM Tris-HCl, 20 mM MgCl2, 0.01% Brij35, 50 μM DTT, 0.1 mg/ml BSA) was prepared using sterile water, which was prepared and used on the day of the experiment.
Preparation of 1000× drug stock plate: a 1000× compound stock plate was prepared. […] The compound stock plate was sealed with a sealing film and stored in a −20° C. refrigerator for later use.
Compound preparation and dosing: the 1000× drug stock plate was taken and melted at room temperature in the dark. Then 5× drug intermediate plate was prepared using reaction buffer and mixed well. 2 μL was transferred from the 5× drug intermediate plate into a 384-well plate, and negative control well and positive control well (in which 2 μL reaction buffer containing 0.5% DMSO was added) were set. Each point was repeated twice.
Preparation and incubation of reaction mixture: HPK1 protein was diluted to a 2.5× working solution with reaction buffer. 4 μL 2.5×HPK1 protein was added to each well containing test compound and positive control well, and 4 μL of reaction buffer without HPK1 protein was added to the negative control well. The obtained mixture was centrifuged at 1000 rpm for 1 min and then incubated in a 20° C. incubator for 15 min. A 2.5× mixed working solution of MBP protein and ATP was prepared with reaction buffer at concentrations of 0.5 μg/μL and 50 μM, respectively. 4 μL of the mixed working solution of MBP and ATP was added to each well, centrifuged at 1000 rpm for 1 min, and then incubated in a 20° C. incubator for 90 min.
ADP-Glo detection and reading plate: 10 μl ADP-Glo was added to each well of the test plate. The resulting mixture was centrifuged at 1000 rpm for 1 min and incubated in a 20° C. incubator for 60 min. Then 10 μL of the final incubation solution was transferred from the test plate to a new 384-well plate. 10 μL of kinase detection reagent was added to each well, centrifuged at 400 g for 1 min, and incubated in a 20° C. incubator for 60 min Chemiluminescent signals were read by a microplate reader.

The target of test [2] is HPK1 (Homo sapiens, UniProt Q92918). Briefly: SLP76 phosphorylation assay (intracellular HPK1 inhibitory activity, p-SLP76 S376 ELISA in Jurkat cells). The note with it: p-SLP76 IC50, Jurkat, Clone E6-1 cells; 1 h compound pre-incubation; anti-CD3 beads stimulation 20 min; Phospho-SLP-76 (Ser376) ELISA.
Target sequence in this assay (Q92918 whole entry): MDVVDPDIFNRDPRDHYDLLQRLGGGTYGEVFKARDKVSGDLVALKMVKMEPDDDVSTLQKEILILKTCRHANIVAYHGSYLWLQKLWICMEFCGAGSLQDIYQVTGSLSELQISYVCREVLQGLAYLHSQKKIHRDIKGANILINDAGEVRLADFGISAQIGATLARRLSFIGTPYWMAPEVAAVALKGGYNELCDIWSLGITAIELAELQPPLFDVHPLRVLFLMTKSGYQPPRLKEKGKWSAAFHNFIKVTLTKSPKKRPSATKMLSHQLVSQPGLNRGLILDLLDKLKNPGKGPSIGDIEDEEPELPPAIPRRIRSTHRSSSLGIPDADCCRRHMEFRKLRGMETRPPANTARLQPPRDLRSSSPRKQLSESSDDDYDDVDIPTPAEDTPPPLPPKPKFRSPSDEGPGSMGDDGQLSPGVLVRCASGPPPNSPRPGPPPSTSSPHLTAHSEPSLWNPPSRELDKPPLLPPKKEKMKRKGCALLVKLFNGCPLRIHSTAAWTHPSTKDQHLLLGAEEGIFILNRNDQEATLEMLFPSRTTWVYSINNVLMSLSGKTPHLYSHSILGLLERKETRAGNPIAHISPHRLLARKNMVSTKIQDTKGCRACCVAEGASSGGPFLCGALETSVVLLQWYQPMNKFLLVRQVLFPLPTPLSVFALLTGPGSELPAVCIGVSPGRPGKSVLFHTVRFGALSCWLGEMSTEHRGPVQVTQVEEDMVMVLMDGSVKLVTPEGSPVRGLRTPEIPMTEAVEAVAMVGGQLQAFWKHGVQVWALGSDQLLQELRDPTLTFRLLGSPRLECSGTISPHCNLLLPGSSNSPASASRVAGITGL

A word on the IC50: it is the concentration that inhibits the measured activity by half. Lower therefore signals higher potency. In the case of `Cc1c[nH]c2ncc(-c3cc4c(c([C@@H]5COCCN5)c3)CN(C(=O)C(C)(C)O)CC4)cc12` [Compound Z372, (R)-2-hydroxy-2-methyl-1-[6-(3-methyl-1H-pyrrolo[2,3-b]pyridin-5-yl)-8-[morphin-3-yl]-3,4-dihydroisoquinolin-2(1H)-yl]propan-1-one], the IC50 in test [1] was 0.18 nM; in test [2] it was 106 nM.

Regarding `Cc1c[nH]c2ncc(-c3cc4c(c([C@@H]5COCCN5)c3)CN(C(=O)C3CCOCC3)CC4)cc12` [Compound Z375], the IC50 came to 0.59 nM in test [1] and 258 nM in test [2].

For `CCNC(=O)N1CCc2cc(-c3cnc4[nH]cc(C)c4c3)cc([C@@H]3COCCN3)c2C1` [Compound Z376, (R)—N-ethyl-6-(3-methyl-1H-pyrrolo[2,3-b]pyridin-5-yl)-8-(morpholin-3-yl)-3,4-dihydroisoquinoline-2(1H)-carboxamide formate], the IC50 in test [1] was 0.33 nM; in test [2] it was 211 nM.

As for `Cc1c[nH]c2ncc(-c3cc4c(c([C@@H]5COCCN5)c3)CCN(C(=O)C3CCOCC3)C4)cc12` [Compound Z377, (R)-(7-(3-methyl-1H-pyrrolo[2,3-b]pyridin-5-yl)-5-(morpholin-3-yl)-3,4-dihydroisoquinolin-2(1H)-yl)(tetrahydro-2H-pyran-4-yl)methanone], the IC50 was 0.28 nM in test [1] and 190 nM in test [2].

`CCc1c(Cl)[nH]c2ncc(-c3cc4c(c([C@@H]5CCCN5)c3)CN(C(=O)COC)CC4)cc12` [Compound Z411]: the IC50 in test [1] stood at 1.12 nM; in test [2], 428 nM.

With `CC(C)c1c[nH]c2ncc(-c3cc4c(c([C@@H]5CCCN5)c3)CN(C(=O)C(C)(C)O)CC4)cc12` [Compound Z416, (S)-2-hydroxy-1-(6-(3-isopropyl-1H-pyrrolo[2,3-b]pyridin-5-yl)-8-(pyrrolidin-2-yl)-3,4-dihydroisoquinolin-2(1H)-yl)-2-methylpropan-1-one], the IC50 in test [1] was found to be 0.29 nM; in test [2] it was 63.1 nM.

As for `CC(C)c1c[nH]c2ncc(-c3cc4c(c([C@@H]5COCCN5)c3)CN(C(=O)C(C)(C)O)CC4)cc12` [Compound Z419, (R)-2-hydroxy-1-(6-(3-isopropyl-1H-pyrrolo[2,3-b]pyridin-5-yl)-8-(morpholin-3-yl)-3,4-dihydroisoquinolin-2(1H)-yl)-2-methylpropan-1-one], the IC50 is 0.11 nM in test [1] and 74.2 nM in test [2].

Take `CCc1c(Cl)[nH]c2ncc(-c3cc4c(c([C@@H]5COCCN5)c3)CN(C(=O)C(C)(C)O)CC4)cc12` [Compound Z422, (R)-1-(6-(2-chloro-3-ethyl-1H-pyrrolo[2,3-b]pyridin-5-yl)-8-(morpholin-3-yl)-3,4-dihydroisoquinolin-2(1H)-yl)-2-hydroxy-2-methylpropan-1-one]: the IC50 in test [1] was 0.72 nM; in test [2] it was 349 nM.

As to `CC(C)(O)C(=O)N1CCc2cc(-c3cnc4[nH]cc(F)c4c3)cc([C@@H]3COCCN3)c2C1` [Compound Z445, (R)-1-(6-(3-fluoro-1H-pyrrolo[2,3-b]pyridin-5-yl)-8-(morpholin-3-yl)-3,4-dihydroisoquinolin-2(1H)-yl)-2-hydroxy-2-methylpropan-1-one], the IC50 came to 0.85 nM in test [1] and 253 nM in test [2].

As for `Cc1c[nH]c2ncc(-c3cc4c(c([C@@H]5COCCN5)c3)CCN(C(=O)[C@H]3CCOC3)C4)cc12` [Compound Z446, (7-(3-methyl-1H-pyrrolo[2,3-b]pyridin-5-yl)-5-((R)-morpholin-3-yl)-3,4-dihydroisoquinolin-2(1H)-yl)((S)-tetrahydrofuran-3-yl)methanone], the IC50 amounted to 0.83 nM in test [1] and 196 nM in test [2].

Regarding `O=C(N1CCc2cc(-c3cnc4[nH]cc(Cl)c4c3)cc([C@@H]3COCCN3)c2C1)N1CC2CCC(C1)O2` [Compound Z447, (8-oxa-3-azabicyclo[3.2.1]octan-3-yl)(6-(3-chloro-1H-pyrrolo[2,3-b]pyridin-5-yl)-8-((R)-morpholin-3-yl)-3,4-dihydroisoquinolin-2(1H)-yl)methanone], the IC50 in test [1] turned out to be 0.18 nM; in test [2] it was 44.8 nM.

As for `CCc1c[nH]c2ncc(-c3cc4c(c([C@@H]5COCCN5)c3)CN(C(=O)N3CCOCC3)CC4)cc12` [Compound Z448, (R)-(6-(3-ethyl-1H-pyrrolo[2,3-b]pyridin-5-yl)-8-(morpholin-3-yl)-3,4-dihydroisoquinolin-2(1H)-yl)(morpholine)methanone], the IC50 in test [1] was found to be 0.29 nM; in test [2] it was 120 nM.

With `Cc1c[nH]c2ncc(-c3cc4c(c([C@@H]5COCCN5)c3)CN(C(=O)C3(O)CCOCC3)CC4)cc12` [Compound Z450], the IC50 in test [1] was 0.22 nM; in test [2], 158 nM.

Consider `Cc1c[nH]c2ncc(-c3cc4c(c([C@@H]5COCCN5)c3)CN(C(=O)N3CC5CCC(C3)O5)CC4)cc12` [Compound Z451, (8-oxa-3-azabicyclo[3.2.1]octan-3-yl)(6-(3-methyl-1H-pyrrolo[2,3-b]pyridin-5-yl)-8-((R)-morpholin-3-yl)-3,4-dihydroisoquinolin-2(1H)-yl)methanone], for which the IC50 in test [1] turned out to be 0.11 nM; in test [2], 44.2 nM.

In the case of `Cc1c[nH]c2ncc(-c3cc4c(c([C@@H]5COCCN5)c3)CN(C(=O)N3CC5CCC3CO5)CC4)cc12` (stereo partly drawn) [Compound Z457, (2-oxa-5-azabicyclo[2.2.2]octan-5-yl)(6-(3-methyl-1H-pyrrolo[2,3-b]pyridin-5-yl)-8-((R)-morpholin-3-yl)-3,4-dihydroisoquinolin-2(1H)-yl)methanone], the IC50 in test [1] amounted to 0.14 nM; in test [2], 60.9 nM.

With `Cc1c[nH]c2ncc(-c3cc4c(c([C@@H]5COCCN5)c3)CN(C(=O)[C@H]3CCOC3)CC4)cc12` [Compound Z469, [6-(3-methyl-1H-pyrrolidine[2,3-b]pyridin-5-yl)-8-[(R)-morpholin-3-yl]-3,4-dihydroisoquinolin-2(1H)-yl]-[(S)-tetrahydrofuran-3-yl]methanone], the IC50 in test [1] amounted to 0.06 nM; in test [2], 125 nM.

Consider `CC(C)(O)C(=O)N1CCc2cc(-c3cnc4[nH]cc(C(F)(F)F)c4c3)cc([C@@H]3COCCN3)c2C1` [Compound Z473, (R)-2-hydroxy-2-methyl-1-(8-(morpholin-3-yl)-6-(3-(trifluoromethyl)-1H-pyrrolo[2,3-b]pyridin-5-yl)-3,4-dihydroisoquinolin-2(1H)-yl)propan-1-one], for which the IC50 amounted to 0.24 nM in test [1] and 143 nM in test [2].

With `CCc1c[nH]c2ncc(-c3cc4c(c([C@@H]5COCCN5)c3)CN(C(=O)C(C)(C)O)CC4)cc12` [Compound Z476, (R)-1-(6-(3-ethyl-1H-pyrrolo[2,3-b]pyridin-5-yl)-8-(morpholin-3-yl)-3,4-dihydroisoquinolin-2(1H)-yl)-2-hydroxy-2-methylpropan-1-one], the values for the IC50 in test [1] and in test [2] were 0.21 nM and 67 nM, respectively.

As for `Cc1c[nH]c2ncc(-c3cc4c(c([C@@H]5COCCN5)c3)CN(C(=O)N3CC[C@H](F)C3)CC4)cc12` [Compound Z488, ((S)-3-fluoropyrrolidin-1-yl)(6-(3-methyl-1H-pyrrolo[2,3-b]pyridin-5-yl)-8-((R)-morpholin-3-yl)-3,4-dihydroisoquinolin-2(1H)-yl)methanone], the IC50 in test [1] amounted to 0.21 nM; in test [2] it was 150 nM.

In the case of `O=C(N1CCc2cc(-c3cnc4[nH]cc(Cl)c4c3)cc([C@@H]3COCCN3)c2C1)N1C2CCC1COC2` [Compound Z489, (3-oxa-8-azabicyclo[3.2.1]octan-8-yl)(6-(3-chloro-1H-pyrrolo[2,3-b]pyridin-5-yl)-8-((R)-morpholin-3-yl)-3,4-dihydroisoquinolin-2(1H)-yl)methanone], the IC50 came to 0.21 nM in test [1] and 82.1 nM in test [2].

Take `Cc1c[nH]c2ncc(-c3cc4c(c([C@@H]5COCCN5)c3)CN(C(=O)N3C5CCC3COC5)CC4)cc12` [Compound Z492, (3-oxa-8-azabicyclo[3.2.1]octan-8-yl)(6-(3-methyl-1H-pyrrolo[2,3-b]pyridin-5-yl)-8-((R)-morpholin-3-yl)-3,4-dihydroisoquinolin-2(1H)-yl)methanone]: the concentration for half-maximal inhibition (IC50) in test [1] turned out to be 0.18 nM; in test [2] it was 95.7 nM.

Take `Cc1c[nH]c2ncc(-c3cc4c(c([C@@H]5CCCN5)c3)CN(C(=O)c3cc(C5CC5)nn3C)CC4)cc12` [Compound Z493, (S)-(3-cyclopropyl-1-methyl-1H-pyrazol-5-yl)-[6-(3-methyl-1H-pyrrolo[2,3-b]pyridin-5-yl)-8-[pyrrolidin-5-yl]-3,4-dihydroisoquinolin-2(1H)-yl]methanone]: the IC50 turned out to be 0.41 nM in test [1] and 295 nM in test [2].

`Cc1c[nH]c2ncc(-c3cc4c(c([C@@H]5CCCN5)c3)CN(C(=O)c3ccn(C5CC5)n3)CC4)cc12` [Compound Z494, (S)-(1-cyclopropyl-1H-pyrazol-3-yl)(6-(3-methyl-1H-pyrrolo[2,3-b]pyridin-5-yl)-8-(pyrrolidin-2-yl)-3,4-dihydroisoquinolin-2(1H)-yl)methanone]: the IC50 in test [1] came out at 0.81 nM; in test [2], 453 nM.

Take `CC(C)(O)C(=O)N1CCc2cc(-c3cnc4[nH]cc(Cl)c4c3)cc([C@@H]3CCCN3)c2C1` [Compound Z496]: the figures for the half-maximal inhibitory concentration (IC50) in test [1] and in test [2] were 0.22 nM and 62.7 nM, respectively.
